In patent US7524851B2 (Robert Bosch Gesellschaft fur Medizinische Forschung (RBMF), priority 2003, dated 2009):

Legend:
[1] = tested on: primary CD4+ T lymphocytes; assay: Annexin V/propidium iodide FACS apoptosis of stimulated primary blood CD4+ T lymphocytes; format: cell-based, human; conditions: anti-CD3, anti-CD28, rIL-2; 4-5 days; at least comparable to 6-MP
Text: Isolation of primary CD4^+ T lymphocytes and lamina propria cells: Human peripheral blood mononuclear cells (PBMCs) from healthy volunteers (25-42 years of age) and patients with Crohn's disease (31-65 years of age) were isolated using Ficoll-Hypaque gradients. PBMCs were further purified using CD4 monoclonal antibodies attached to immunomagnetic beads according to the manufacturer's protocol, followed by treatment with Detachabead (Dynal; Oslo, Norway). In some cases, CD4^+ T cells were further separated by negative selection techniques using CD45RO or CD45RA monoclonal antibodies (PharMingen; Heidelberg, Germany) and immunomagnetic beads (Dynal). […] Lamina propria mononuclear cells (LPMCs) from patients with IBD were isolated from gut specimens using a short-term (5-minute) digestion protocol with collagenase V, hyaluronidase (Sigma-Aldrich; St. Louis, Mo., USA), and DNase (Roche; Mannheim, Germany), as recently described in detail in Holtmann et al., Eur. J. Immunol. 32:3142-3151 (2002). Briefly, specimens were washed in calcium- and magnesium-free HBSS (HBSS-CMF), cut into 0.5-cm pieces, and incubated twice in HBSS containing EDTA (0.37 mg/ml) and DTT (0.145 mg/ml) at 37° C. for 15 minutes, followed by subsequent digestion for 5 minutes with collagenase V 400 (1 mg/ml), deoxyribonuclease (0.1 mg/ml DNase), and hyaloronidase (0.1 mg/ml) in a shaking incubator at 37° C. The digested tissue was washed twice in RPMI medium containing 10% FCS and centrifuged. The tissue was finally mechanically homogenized (DAKO homogenizer; Hamburg, Germany) for 4 minutes, and cells were filtered through a sterile 40-μm cell strainer (Falcon; San Diego, Calif., USA).
Such CD28 costimulation is known to prevent apoptosis of primary T cells during T cell receptor (TCR) stimulation through activation of bcl-x, and NF-κB (Noel et al., J. Immunol. 157:636-647 (1996); Radvanyi et al., J. Immunol. 156:1788-1798 (1996); Khoshnan et al., J. Immunol. 165:1743-1754 (2000)). […] In addition, recombinant IL-2 (R&D Systems; Wiesbaden, Germany) was used at a final concentration of 40 U/ml in all experiments. Lamina propria T lymphocytes were stimulated with antibodies to CD2 (4 μg/ml; Immunotech; Marseille, France) and CD28 (1 μg/ml). […] To block CD95L-mediated (FasL-mediated) apoptosis, the NOK-1 antibody (4 μg/ml, PharMingen) was used whose Fab fragments bind to human CD95L (FasL) (Jodo et al., J. Immunol. 165:5487-5494 (2000)). Recombinant human FasL (Alexis Biochemicals; Heidelberg, Germany) was used as a positive control for the NOK-1 antibody (10 μg/ml).
For FACS analysis, apoptotic cells were detected by staining with annexin V and propidium iodide using the Annexin V FITC Apoptosis Detection Kit I (PharMingen) (Atreya et al., Nat. Med. 6:583-588 (2000)). In brief, T cells were washed twice in PBS, and the pellet was resuspended in annexin V binding buffer (PharMingen) at a concentration of 10^6 cells per milliliter. Annexin V FITC and propidium iodide were added (5 ill of each per 10^5 cells). Samples were gently mixed and incubated for 15 minutes at room temperature in the dark before FACS analysis. To verify the results obtained with the annexin V/propidium iodide staining, analysis of T cells displaying DNA fragmentation was also determined by the Nicoletti technique, as described in (Nicoletti et al., J. Immunol. Methods 139:271-279 (1991)). 10^6 T cells were fixed in 70% ethanol, washed once in HBSS, resuspended in 1 ml of HBSS and 1 ml of phosphate citric acid buffer (0.2 mol/l Na2PO4 and 0.004 mol/l citric acid [pH 7.8]), and incubated at room temperature for 5 minutes. After centrifugation, cells were resuspended in 1 ml of HBSS containing 20 μg/ml propidium iodide and 10 U DNase-free RNase A and incubated at room temperature for 30 minutes. Finally, cells were analyzed on a FACScan flow cytometer. Because of the fragmentation of DNA, apoptotic cells appear as hypodiploid in the DNA histogram.

Rac1 = Rac1 activation assay (GTP-bound Rac1, PAK pull-down); format: cell-based, human; conditions: primary T cells, 3 days
Protocol: (§1) Cell lysates were incubated with 10 μg/ml PAK-1 agarose (Rac assays) or 10 μg/mg Raf RBD agarose (Ras assay) for 60 minutes (Rac assays) or 30 minutes (Ras assays) at 4° C. Agarose beads were collected by centrifugation followed by denaturation, boiling of the samples, and SDS-PAGE analysis.

Ras = Ras activation assay (GTP-bound Ras, Raf RBD pull-down); format: cell-based, human; conditions: primary T cells
Protocol: as §1

[2] = tested on: primary CD4+ T lymphocytes; assay: Mitochondrial membrane potential (JC-1, FACS); conditions: positive control, 50 μM for 18 hours
[3] = Interconversion of TGDP and TGTP in spiked blank RBC during sample work-up; format: in vitro ADME, human
Protocol: Calibration samples and controls were prepared as described in Rabel et al., supra, with minor modifications. Known amounts of 6-thioguanosine phosphates were added to a mixture of EDTA and 10 μl of DTT to give a final volume of 150 μl. Finally, 100 μl of blank RBC were added and the mixture thoroughly homogenized by vortex mixing. Sample preparation was performed as described above. Calibration curves covered the range of 10 to 50 pmol for TGMP, 10 to 100 pmol for TGDP, and 20 to 400 pmol for TGTP per sample referred to 100 μl of packed blank RBC. Standard curves were obtained by linear regression using peak areas versus concentrations. Because of the partial conversion of TGDP to TGTP and vice versa, both peak areas were summed up. In addition, combinations of 5 to 20 percent of TGDP per sum of TGDP and TGTP were prepared.
The percentage of conversion of TGDP to TGTP and of TGTP to TGDP was assessed using three sets of TGDP and TGTP calibrators prepared with different RBC.

[4] = as above; format: in vitro ADME, human; remark: listed apart in the source
[5] = Stability of thioguanosine phosphates in patient blood samples; format: in vitro ADME, human
Protocol: Stability of the thioguanosine phosphates in blood samples was examined by storing blood samples from patients for up to 5 days at ambient temperature. RBC were isolated after the specified storage time and frozen at −80° C. until analysis.

Recombinant Rac1 = Recombinant Rac1 (Homo sapiens, UniProt P63000); assay: Competition of [3H]GTP binding to recombinant Rac1; conditions: 0-500 μM, PAK pull-down, scintillation counting
Protocol: (§2) Rac and Ras activation assays: The levels of Rac1- and Ras-bound GTP were determined by immunoblot techniques (Upstate Biotech; London, United Kindom). […] Cell lysates were incubated with 10 μg/ml PAK-1 agarose (Rac assays) or 10 μg/mg Raf RBD agarose (Ras assay) for 60 minutes (Rac assays) or 30 minutes (Ras assays) at 4° C. Agarose beads were collected by centrifugation followed by denaturation, boiling of the samples, and SDS-PAGE analysis. Proteins were transferred to nitrocellulose membranes and incubated with 1 μg/ml murine anti-human Rac1 or anti-human Ras (clone Ras10) antibodies overnight at 4° C., followed by detection with goat anti-mouse HRP-conjugated IgG (1:1000 dilution) and the ECL detection system. To analyze the capacity of TGTP to bind to Rac1 or Ras, chemically synthesized TGTP (obtained from Jena Bioscience, Jena, Germany) was used. Recombinant Rac1 or Ras was incubated with radiolabeled GTP ([^3H]GTP, Amersham) and increasing amounts of TGTP (0-500 μM) followed by Rac1 and Ras pull-down through PAK and Raf RGD and analysis of [^3H]GTP-bound Rac1 or Ras by scintillation counting.

[6] = Stability of thioguanosine phosphates in extracted samples; format: physicochemical
Text: Stability of thioguanosine phosphates in extracted samples was investigated by storage of extracted samples from 12 patients before oxidation and after oxidation for 14 days and comparing the results with the same samples analyzed immediately after oxidation.

Recombinant Ras = assay: Competition of [3H]GTP binding to recombinant Ras; conditions: 0-500 μM, Raf RGD pull-down, scintillation counting
Protocol: as §2

[7] = Stability during storage of RBC at −80° C.; format: in vitro ADME, human
Protocol: Stability during storage of RBC at −80° C. was investigated in samples from 18 patients. RBC which were analyzed within one week after isolation were compared with RBC stored for up to 14 weeks.

[8] = tested on: primary CD4+ T lymphocytes; assay: Blocking of caspase-8 and caspase-9 activity in 6-MP-induced apoptosis; format: cell-based, human; conditions: 10 μM inhibitor; FACS after 5 days
Protocol: Blocking of caspase-8 and caspase-9 activity: Primary CD4^+ T lymphocytes from peripheral blood were isolated as described above and stimulated with antibodies to CD3 and CD28 in the presence or absence of indicated amounts of N-acetyl-Leu-Glu-His-Asp-aldehyde (Biomol), a reversible inhibitor of caspase-9, or Ac-Ile-Glu-Thr-Asp-aldehyde (Bachem; Heidelberg, Germany), an inhibitor of caspase-8. Apoptosis was determined by FACS analysis after 5 days of cell culture.

[9] = more than 10 different blank RBC
[10] = 5 days of storage of blood at ambient temperature

Nc1nc2nc[nH]c2c(=S)[nH]1 [6-TG, 6-thioguanine]
apoptosis of primary blood CD4+ T lymphocytes [1]: marked apoptosis
CD28 costimulation induced Rac1 activation (GTP-bound Rac1) (Rac1): strongly suppressed
activation of Ras (GTP-bound Ras) (Ras): fail to modulate

N#CC(C#N)=NNc1ccc(OC(F)(F)F)cc1 [FCCP, carbonylcyanide-4-(trifluoromethoxy)-phenylhydrazone]
ΔΨm in primary CD4+ T cells [2]: marked reduction of ΔΨm

Nc1nc2c(ncn2[C@@H]2O[C@H](COP(=O)(O)OP(=O)(O)O)[C@@H](O)[C@H]2O)c(=S)[nH]1 [TGDP, 6-thioguanosine diphosphate]
Area % of calibrator added, area calibrator × 100/(area TGTP + area TGDP), mean (n = 6) ([3]; spiked RBC 1): 91.6%
Area % of calibrator added, area calibrator × 100/(area TGTP + area TGDP), mean (n = 6) ([3]; spiked RBC 2): 92.6%
Area % of calibrator added, area calibrator × 100/(area TGTP + area TGDP), mean (n = 6) ([3]; spiked RBC 3): 92.8%
conversion of TGDP to TGTP ([3]; spiked samples from three healthy volunteers): 7-8%
Area % of calibrator added, area calibrator × 100/(area TGTP + area TGDP), mean (n = 6) ([4]; 0.9% NaCl): 100.0%
conversion of TGDP ([4]; 0.9% NaCl): did not show any conversion
conversion of TGDP to TGTP [4, 9]: 6-15%
change of amount of TGDP ([5]; up to 5 days of storage of blood at ambient temperature): did not change significantly

Nc1nc2c(ncn2[C@@H]2O[C@H](COP(=O)(O)O)[C@@H](O)[C@H]2O)c(=S)[nH]1 [TGMP, 6-thioguanosine monophosphate]
amount of TGMP as share of total thioguanosine phosphates [5, 10]: more than 70%

Nc1nc2c(ncn2[C@@H]2O[C@H](COP(=O)(O)OP(=O)(O)OP(=O)(O)O)[C@@H](O)[C@H]2O)c(=S)[nH]1 [TGTP, 6-thioguanosine triphosphate]
binding to recombinant Rac1 / suppression of [3H]GTP-bound Rac1 (Recombinant Rac1): able to bind to recombinant Rac1 under in vitro conditions (although with lower affinity than GTP)
binding to recombinant Rac1 / suppression of [3H]GTP-bound Rac1 (Recombinant Rac1; listed as 6-Thio-GTP): concentration-dependent suppression
Area % of calibrator added, area calibrator × 100/(area TGTP + area TGDP), mean (n = 6) ([3]; spiked RBC 1): 90.3%
Area % of calibrator added, area calibrator × 100/(area TGTP + area TGDP), mean (n = 6) ([3]; spiked RBC 2): 93.9%
Area % of calibrator added, area calibrator × 100/(area TGTP + area TGDP), mean (n = 6) ([3]; spiked RBC 3): 82.2%
conversion of TGTP to TGDP ([3]; subject 1): 9.7%
conversion of TGTP to TGDP ([3]; subject 2): 6.1%
conversion of TGTP to TGDP ([3]; third sample): ~18%
Area % of calibrator added, area calibrator × 100/(area TGTP + area TGDP), mean (n = 6) ([4]; 0.9% NaCl): 95.6%
conversion of TGTP to TGDP [4, 9]: 6-20%
TGDP found after sample work-up ([4]; saline samples spiked with TGTP): about 5%
TGTP recovered [5, 10]: about 5%
change of TGTP on storage of blood samples ([5]; one day at ambient temperature): marked decrease
reduction of the proportion of TGTP ([6]; non-oxidized extracts kept 14 days at ambient temperature before oxidation, average (range from −5 to −12%)): 7%
decrease of TGTP proportion ([6]; oxidized samples stored for 14 days (range from −6 to −13%)): approximately 8%
competition with GTP for recombinant Ras / [3H]GTP-bound Ras (Recombinant Ras): did not significantly compete
competition with GTP for recombinant Ras / [3H]GTP-bound Ras (Recombinant Ras; listed as 6-Thio-GTP): little effect
decrease of the proportion of TGTP ([7]; RBC from 18 patients at −80° C. for 8 to 14 weeks, thawed twice): 7.6±7.6%
effect of repeated thawing and freezing of RBC samples ([7]; dephosphorylation of TGTP to TGDP): progression in dephosphorylation

Ac-IETD-aldehyde [acetyl-IETD-CHO]
effect on 6-MP-induced apoptosis of primary T lymphocytes [8]: lesser effects

N-acetyl-Leu-Glu-His-Asp-aldehyde (Ac-LEHD-aldehyde; SMILES CC(=O)N[C@@H](CC(C)C)C(=O)N[C@@H](CCC(=O)O)C(=O)N[C@@H](Cc1c[nH]cn1)C(=O)N[C@H](C=O)CC(=O)O) [acetyl-LEHD-CHO]
effect on 6-MP-induced apoptosis of primary T lymphocytes [8]: suppressed 6-MP-induced apoptosis
